# Assay results taken from US8580786B2, “Triazine derivatives and their therapeutical applications” (Nant Holdings IP, LLC, priority 2006, dated 2013).
# Test system: MX-1 (human breast carcinoma) cells
# Assay: Cytotoxicity assay (Promega CellTiter Blue Cell Viability Assay), in vitro growth inhibition
# Format: cell-based
# Settings: MX1, MX-1 cells, 72 hrs exposure to compound, CellTiter Blue fluorescence readout, read-out: IC50 (μM), cytotoxicity of triazine derivatives
# Experimental: A cytotoxicity assay was quantitated using the Promega CellTiter Blue Cell Viability Assay. Briefly, cells (5000 cells/well) were plated onto 96-well microtiter plates in RPMI 1640 medium supplemented with 10% FBS and incubated at 37° C. in a humidified 5% CO2 atmosphere. After 24 hrs., cells were exposed to various concentrations of compound in DMSO and cultured for another 72 hrs. 100 ul of media were removed and 20 ul of Promega CellTiter Blue reagent were added to each well and shaken to mix. After 4 hours of incubation at 37° C. in a humidified 5% CO2 atmosphere, the plates were read at 544 ex/620 em. The fluorescence produced is proportional to the number of viable cells. After plotting fluorescence produced against drug concentration, the IC50 was calculated as the […] of the resulting non-linear regression.
row,Structure (SMILES),IC50 [µM]
1,Cc1nc(Nc2ncc(C(=O)Nc3c(C)cccc3Cl)s2)nc(N2CCOCC2)n1 [Compound 8],58.1
2,Cc1cccc(Cl)c1NC(=O)c1cnc(Nc2nc(Cl)nc(Nc3cnc(C(=O)Nc4c(C)cccc4Cl)s3)n2)s1 [Compound 12],237
3,Cc1nc(Nc2ccc(Oc3ccc(Cl)cc3)cc2)nc(N2CCN(c3ccncc3)CC2)n1 [Compound 11],1.4
4,Cc1nc(Nc2ncc(C(=O)Nc3c(C)cccc3Cl)s2)nc(N2CCN(C)CC2)n1 [Compound 7],38.7
5,Cc1cccc(Cl)c1NC(=O)c1cnc(Nc2nc(Cl)nc(N3CCN(CCO)CC3)n2)s1 [Compound 13],171
6,Cc1nc(Nc2ncc(C(=O)Nc3c(C)cccc3Cl)s2)nc(N2CCN(CCO)CC2)n1 [Compound 5],16
7,Cc1nc(Cl)nc(Nc2ccc(Oc3ccc(Cl)cc3)cc2)n1 [Compound 9],19.1
8,Cc1nc(Cl)nc(Nc2ncc(C(=O)Nc3c(C)cccc3Cl)s2)n1 [Compound 4],12.2
9,Cc1nc(Nc2ncc(C(=O)Nc3c(C)cccc3Cl)s2)nc(N2CCN(c3ccncc3)CC2)n1 [Compound 6],2.6
10,Cc1cccc(Cl)c1NC(=O)c1cnc(Nc2nc(N3CCN(c4ccncc4)CC3)nc(N3CCN(c4ccncc4)CC3)n2)s1 [Compound 14],131
11,Cc1nc(Nc2ccc(Oc3ccc(Cl)cc3)cc2)nc(N2CCN(CCO)CC2)n1 [Compound 10],14.1
